Laboratory results taken from publication PMC8267647, “Metallacarborane Derivatives Effective against Pseudomonas aeruginosa and Yersinia enterocolitica” (International Journal of Molecular Sciences, 2021).
Read-outs that look alike come from different tables or passages of the source.

How the values were obtained:
[1] = system: mammalian cell culture; settings: cited from earlier work
[2] = system: MRSA; settings: after 20 passages; cited from earlier work
[3] = system: Pseudomonas aeruginosa strain PCM 2058; assay: Bacterial growth inhibition IC50 in LB medium; type: cell-based; settings: 8-h time point, Luria-Bertani medium, 37 °C; ± SEM; read-out: IC50 for growth inhibition, Pa 2058
Method: (§1) Bacterial growth inhibition was measured on a Spark 10 M (Tecan, AT) microplate reader as described previously (Swietnicki et al., 2019). Briefly, a bacterial culture in LB medium grown at 37 °C overnight was diluted 1:100 with a fresh medium and aliquoted into a 96-well plate at 98 μL/well with a multichannel pipette. A 2 μL aliquot of compound serially diluted in DMSO was added in triplicates, the plate was covered with a lid or a transparent plate sealer, and incubated at 37 °C for up to 24 h. Bacterial growth was monitored by following an A600 reading every hour. After the experiment, the data were stored in Excel format, transferred into KaleidaGraph software (Synergy Software, Reading, PA, USA) and the A600 was plotted versus log [Concentration]. The IC50 values were determined by fitting the readings at the 8 h time point to a sigmoidal model of inhibition. Each experiment was repeated at least 3 times to verify the values.

[4] = system: Pseudomonas aeruginosa strain PCM 499; assay: Bacterial growth inhibition IC50 in LB medium; type: cell-based; settings: 8-h time point, Luria-Bertani medium, 37 °C; ± SEM; read-out: IC50 for growth inhibition, Pa499
Method: as §1

[5] = system: Yersinia enterocolitica strain PCM 2080; assay: Bacterial growth inhibition IC50 in LB medium; type: cell-based; settings: 8-h time point, Luria-Bertani medium, 37 °C; ± SEM; read-out: IC50 for growth inhibition, Ye 2080
Method: as §1

[6] = system: Yersinia enterocolitica strain PCM 2090; assay: Bacterial growth inhibition IC50 in LB medium; type: cell-based; settings: 8-h time point, Luria-Bertani medium, 37 °C; ± SEM; read-out: IC50 for growth inhibition, Ye 2090
Method: as §1

[7] = system: Y. enterocolitica strain PCM 2080 grown in the presence of 200 μM compounds; assay: Cross-resistance generation: IC50 on compound-evolved bacteria; type: cell-based, Yersinia enterocolitica; settings: read-out: Resistance (IC50 value against the selected compound)
Method: as §1
The evolution was performed in parallel using blood agar and LB agar plates prepared in-house. Briefly, a 200 μL aliquot of 200 μM compound in PBS was added to a fresh agar plate, spread on the surface, and left to dry in a BSC cabinet for approximately 30 min. After that time, a single colony from an overnight culture on a plate was spread on the surface before the plate was covered with a lid and left at 37 °C to incubate overnight. The procedure was repeated at least nine times for each plate. After the last step, a single colony was selected from a plate and added to a 3 mL aliquot of LB medium. […] Dual selection on different plates was necessary in cases where the growth inhibition was too strong to obtain single colonies on LB agar plates. […] Until then, the colonies were supplied from bacteria grown on the blood agar plates.

[8] = system: BALB/3T3; assay: Antiproliferative SRB assay; type: cell-based, mouse; settings: SRB method, 72 h of treatment; highest concentration 100 μM; read-out: IC50 72h (95% CI) BALB/3T3
Text: (§2) Rockville, Maryland, USA).

[9] = system: MCF 10A; assay: Antiproliferative SRB assay; type: cell-based, human; settings: SRB method, 72 h of treatment; highest concentration 100 μM; read-out: IC50 72h (95% CI) MCF 10A
Text: as §2

[10] = system: zebrafish (Danio rerio) larvae; assay: Danio rerio toxicity assay (modified Fish Embryo Toxicity test); type: in vivo; settings: for mortality rate: day 5; for visible morphological deformities: concentrations up to 10 μM; for mortality (share of the population): 10 μM, day 5 post-exposure
Method: To determine acute toxicity of examined compounds modified Fish Embryo Toxicity (FET) test was performed of zebrafish (Danio rerio) according to OECD Test Guideline 236. Briefly, the collected embryos were transferred to a Petri dish with E3 medium (5 mM NaCl, 0.33 mM MgCl2, 0.33 mM CaCl2, 0.17 mM KCl; pH 7.2) and then placed in 24-well plates, 5 embryos per well, 10 per group. Stock solutions of boron cluster compounds were prepared in DMSO. In these experiments, three series of solutions with different concentrations were employed, which were freshly prepared by dissolving stock solutions in the E3 solution each time directly before addition to the wells. The solutions were changed once daily and the embryos were maintained in the incubator at 28.5 °C. Zebrafish embryos were evaluated for developmental abnormalities and viability at 24 h intervals for up to 5 days using a stereomicroscope (Zeiss Axio Vert, ZEISS, Germany). Morphological deformities of the heart, dorsal string, and tail development were measured and compared with the control embryos. Image analysis was performed to determine the percentage of dead and malformed embryos over time using Zeiss software. The experiment was performed in triplicate. Fish were taken from own fish facility of The Centre of Experimental Medicine, Medical University of Lublin. For the experiment AB OMD strain was used.
Figure 4 Toxicity of selected compounds on zebrafish (Danio rerio) larvae. Fish larvae were grown in 6-well plates in the presence of compounds for up to 5 days and the morphological deformities were analyzed from images as described under Materials and Methods. Representative photographs are shown. S, scoliosis; TA, tail autophagy; PE, pericardial edema.
Figure 5 Mortality rates of selected compounds on zebrafish (Danio rerio) larvae. The population size (n = 10) from Figure 4 was followed up to day 5 as described under Materials and Methods. Representative graphs are shown.

[11] = system: drug-resistant Y. enterocolitica strain 2080; assay: SEM of drug-resistant bacteria; type: cell-based, Yersinia enterocolitica; settings: for bacterial growth seen under SEM: bacteria passaged at least nine times with 200 μM compound; for mechanism of biological activity: from SEM, 200 μM
Method: Scanning electron microscopy of Y. enterocolitica was performed at a low accelerating voltage of the primary beam without any coating or heavy-metal contrasting of the samples, as described in previous work. Bacteria were applied onto a polished silicon crystal chip and allowed to adhere for 30 min. The samples were fixed with 2.5% glutaraldehyde in 0.1 M cacodylate buffer for 30 min at 4 °C, then washed in water and dehydrated in a series of methanol solutions (25%-50%-75%-100%-100%) in one-hour steps at 4 °C. Samples underwent critical point drying with methanol exchanged for liquid CO2 in an automatized approach, (CPD300 AUTO, Leica Microsystems, Vienna, Austria) and imaged with a cross-beam scanning electron microscope equipped with a Schottky field-emission cathode (Auriga 60, Carl Zeiss, Oberkochen, Germany) at 0.8 kV accelerating voltage. Thus, the imaging was performed within a mode referred to as the low-voltage, field-emission scanning electron microscopy (LV-FESEM) of nonlabeled, critical point-dried samples.
Figure 3 Scanning electron microscopy of drug-resistant Y. enterocolitica strain 2080. […] After exposure to compound 1 for nine passages, there were only fragments of organic debris visible (B). In the presence of compounds 7 and 3, there were multiple bacteria observed with apparently normal morphology. Scale bars: (A) and (B) 500 nm, (C) and (E) 2.5 μm, (D) and (F) 1 μm.

[12] = strain PCM 2080 grown with 200 μM compound 1 for at least nine generations
[13] = strain PCM 2080 grown with 200 μM compound 3 for at least nine generations
[14] = strain PCM 2080 grown with 200 μM compound 7 for at least nine generations
[15] = 2 μM, up to day 5 post-exposure
[16] = concentrations lower than 20 μM except 2 μM

Question: For “3,3′-commo-bis[closo-1,2-dicarba-3-cobaltadodecaborate](1-) [COSAN, reference compound]”, which “concentration that reversibly blocks cell growth” value [1] is on record?
Answer: above 100 µM

Question: With “8-ethoxy-8′-iodo derivative of cobalt bis(1,2-dicarbollide) [Compound K121]” as the substance, how does the generation of resistance [2] read?
Answer: not able to generate resistance

Question: Which results are given for “Cs[8,8′-I2-3,3′-Co(1,2-C2B9H10)2] [Compound 1]”?
Answer: IC50 [3]: 28.3 ± 6 µM; IC50 [4]: 11.4 ± 1 µM; IC50 [5]: 4.8 ± 3 µM; IC50 [6]: 2.5 ± 1.4 µM; IC50 [7, 12]: 2.6 ± 0.2 µM; IC50 [7, 13]: 4 ± 1 µM; IC50 [7, 14]: 3.1 ± 1 µM; IC50 [8]: 17 µM; IC50 [9]: 59.8 µM; mortality [10, 15]: none of the animals died; mortality ([10]; 20 μM, day 4): lethal to all larvae; mortality rate [10, 16]: 20%; visible morphological deformities [10]: induced visible morphological deformities; bacterial growth seen under SEM [11]: generally inhibited bacterial growth; mechanism of biological activity [11]: most likely being bactericidal; change of ED50 versus COSAN ([1]; mammalian cells): decreases the ED50 values approximately threefold

Question: With “Cs[8-O-CHEt2-8′-I-3,3′-Co(1,2-C2B9H10)2] [Compound 4]” as the substance, how does the IC50 [3] read?
Answer: 72 ± 30 µM

Question: What about the IC50 [4] of the same substance?
Answer: 52.9 ± 20 µM

Question: And the IC50 [5]?
Answer: 6.7 ± 2.3 µM

Question: And the IC50 [6]?
Answer: 5.3 ± 1 µM

Question: And the IC50 [8]?
Answer: 11.3 µM

Question: And the IC50 [9]?
Answer: 50 µM

Question: What about the mortality [10, 15] of the same substance?
Answer: none of the animals died

Question: What about the “mortality (share of the population)” value [10] of the same substance?
Answer: ≤ 20%

Question: And the mortality ([10]; 20 μM, day 4)?
Answer: lethal to all larvae

Question: And the mortality rate [10, 16]?
Answer: 20%

Question: And the visible morphological deformities [10]?
Answer: did not induce visible deformities

Question: What does the source list for “Cs[8-O-cyclo-C6H11-8′-I-3,3′-Co(1,2-C2B9H10)2] [Compound 5]”?
Answer: IC50 [3]: 52.1 ± 15 µM; IC50 [4]: 52.1 ± 10 µM; IC50 [5]: 7.5 ± 4 µM; IC50 [6]: 3.3 ± 1 µM; IC50 [8]: 11.7 µM; IC50 [9]: 46.3 µM; mortality (share of the population) [10]: ≤ 20%; morphological deformities ([10]; 20 μM): deformities of dorsal string; mortality rate ([10]; 20 μM): 20%; visible morphological deformities [10]: did not induce visible deformities

Question: Which IC50 [3] does the source give for “Cs[8-O-iso-Bu-8′-I-3,3′-Co(1,2-C2B9H10)2] [Compound 3]” here?
Answer: 59 ± 30 µM

Question: What about the IC50 [4] of the same substance?
Answer: 16.9 ± 8 µM

Question: And the IC50 [5]?
Answer: 4.2 ± 1.8 µM

Question: What about the IC50 [6] of the same substance?
Answer: 3.4 ± 1 µM

Question: And the IC50 [7, 12]?
Answer: 4.7 ± 1 µM

Question: What about the IC50 [7, 13] of the same substance?
Answer: 10.4 ± 3 µM

Question: What about the IC50 [7, 14] of the same substance?
Answer: 3.7 ± 1.2 µM

Question: What about the IC50 [8] of the same substance?
Answer: 10.2 µM

Question: And the IC50 [9]?
Answer: 52.5 µM

Question: What about the “bacterial growth seen under SEM” value [11] of the same substance?
Answer: did not inhibit the growth of bacteria

Question: And the “mechanism of biological activity” value [11]?
Answer: blockage of bacterial cell division

Question: Which results are given for “Cs[8-O-n-Bu-8′-I-3,3′-Co(1,2-C2B9H10)2] [Compound 2]”?
Answer: IC50 [3]: 28 ± 8 µM; IC50 [4]: 12.1 ± 4 µM; IC50 [5]: 4.3 ± 1.5 µM; IC50 [6]: 2.4 ± 0.7 µM; IC50 [8]: 3.7 µM; IC50 [9]: 16.1 µM

Question: What does the source list for “[8-NH2-CHEt2-8′-I-3,3′-Co(1,2-C2B9H10)2] [Compound 8]”?
Answer: IC50 [8]: 0.023 µM; IC50 [9]: 0.045 µM

Question: With “[8-NH2-cyclo-C6H11-8′-I-3,3′-Co(1,2-C2B9H10)2] [Compound 9]” as the substance, how does the IC50 [8] read?
Answer: 0.067 µM

Question: And the IC50 [9]?
Answer: 0.082 µM

Question: What does the source list for “[8-NH2-iso-Bu-8′-I-3,3′-Co(1,2-C2B9H10)2] [Compound 7]”?
Answer: IC50 [3]: 24.7 ± 8 µM; IC50 [4]: 58.7 ± 20 µM; IC50 [5]: 1.8 ± 0.8 µM; IC50 [6]: 6.2 ± 0.7 µM; IC50 [7, 12]: > 37 µM; IC50 [7, 13]: > 100 µM; IC50 [7, 14]: > 100 µM; IC50 [8]: 0.024 µM; IC50 [9]: 0.115 µM; bacterial growth seen under SEM [11]: did not inhibit the growth of bacteria; mechanism of biological activity [11]: blockage of bacterial cell division

Question: For “[8-NH2-n-Bu-8′-I-3,3′-Co(1,2-C2B9H10)2] [Compound 6]”, which IC50 [8] is on record?
Answer: 0.29 µM
